Results taken from patent publication US11191801B2, “Pharmaceutical composition for preventing or treating diabetic complications and angioedema, containing natural mixture extract as active ingredient” (KOREA INSTITUTE OF ORIENTAL MEDICINE, priority 2014, dated 2021).
Several values for one entry are separate records, joined by “and”; a condition that tells them apart may be missing. Equal entries are not always repeated. Each block holds one compound with its values, some of them ahead of it.

Key:
[1] = test system: advanced glycation end-products (AGEs); experiment: Inhibition of producing advanced glycation end-products (AGEs) in vitro (BSA with fructose/glucose, fluorescence); type: biochemical; details: BSA 10 mg/mL, 0.2 M fructose and 0.2 M glucose, 37° C., seven days
Method: Specifically, 10 mg/mL of bovine serum albumin (BSA, Sigma, USA) dissolved in 50 mM phosphate buffer (pH 7.4) was used as a protein source, and the solution mixed with 0.2 M fructose and 0.2 M glucose was used as a sugar source. The extracts of Examples and aminoguanidine (positive control group) were dissolved in 0.2% dimethylsulfoxide (DMSO), followed by dissolving again in 15% tween 80. The thus-prepared protein source, sugar source, and extracts were mixed, prepared at 1 mL in total, cultured at 37° C. for seven days, and allowed to undergo glycation. Herein, 0.02% sodium azide, an antibacterial agent, was added to prevent bacterial production. After cultivation, the fluorescence was measured at an absorption wavelength of 350 nm and an emission wavelength of 450 nm using a spectrofluorometric detector (Bio-TEK, USA).

[2] = target: T1, cross-link between AGE-BSA and collagen (Bos taurus, UniProt P02769); experiment: Fragmentizing cross-link of advanced glycation end-products (AGE-BSA/collagen ELISA); type: biochemical; details: AGE-BSA cross-linked to collagen, 37° C., four hours
T1 construct: purchased Transgenic Inc. Kobe, Japan (AGE-BSA); Greiner Bio-One, Germany (collagen-coated plate)
T1 sequence (P02769 25-607): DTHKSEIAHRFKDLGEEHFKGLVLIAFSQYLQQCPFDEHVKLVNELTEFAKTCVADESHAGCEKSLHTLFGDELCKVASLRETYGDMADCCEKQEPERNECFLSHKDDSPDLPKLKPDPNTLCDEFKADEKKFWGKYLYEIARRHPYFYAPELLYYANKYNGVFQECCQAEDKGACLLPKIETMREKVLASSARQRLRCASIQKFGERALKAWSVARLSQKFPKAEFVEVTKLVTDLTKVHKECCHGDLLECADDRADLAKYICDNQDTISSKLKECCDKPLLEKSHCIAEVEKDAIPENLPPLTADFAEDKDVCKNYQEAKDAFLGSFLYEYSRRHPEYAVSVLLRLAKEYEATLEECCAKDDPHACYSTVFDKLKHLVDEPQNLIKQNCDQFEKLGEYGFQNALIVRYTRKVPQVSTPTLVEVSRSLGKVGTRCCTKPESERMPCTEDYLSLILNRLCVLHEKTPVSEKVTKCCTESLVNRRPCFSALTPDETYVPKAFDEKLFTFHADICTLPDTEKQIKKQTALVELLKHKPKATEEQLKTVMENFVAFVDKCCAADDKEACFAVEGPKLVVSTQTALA
Method: Specifically, 1.0 μg of AGE-BSA (Transgenic Inc. Kobe, Japan) was dispensed into a collagen-coated 96-well microtiter plate (Greiner Bio-One, Germany) and cultured at 37° C. for four hours, and then the AGE-BSA and collagen were allowed to cross-link. After washing the resultant three times with PBST (0.05%) to remove AGE-BSA not linked, a mixed extract and ALT-711 were added, and cultured at 37° C. for four hours. Thereafter, the resultant was washed with PBST (0.05%), and in order to detect the AGE-BSA remaining due to the cross-link to collagen, mouse monoclonal anti-AGE-BSA antibodies (6D12, Transgenic Inc. Kobe, Japan) were diluted at 1:250 and dispensed, followed by cultivation at 37° C. for one hour. After one hour, the resultant was washed with PBST (0.05%) and reacted with HRP-linked goat anti-mouse IgG antibodies (Santa Cruz, USA) to develop TMB (3.3′,5,5′-tetramethylbenzidine) as a substrate. Thereafter, absorbance was measured at 450 nm. The cross-link fragmentation effect (%) of AGE-BSA was calculated as shown in the following Equation 2.

claudin-5 and occludin = experiment: Therapeutic model with metformin co-administration: damage to tight-junction proteins; type: in vivo, mice; details: metformin 350 mg/kg/day alone
Method: In addition, the resultant was dehydrated and substituted three times with xylene, thereby embedding the same with paraffin. Blocks of the embedded tissue were prepared as serial sections in a thickness of 4 μm, and placed on slides for use. In order to remove an endogenous peroxidase activity, a slide which underwent deparaffinization and function processes was allowed to react with 3% hydrogen peroxide solution for 10 minutes, and then washed three times with PBS containing 0.05% tween 20. […] Thereafter, the diluted primary antibodies were treated for one hour or overnight. After washing with PBS for one hour, a labeled streptoavidin biotin (LSAB) kit (Dako, USA) was applied to the resultants, developed with DAB, and then observed using an optical microscope. […] Thereafter, the resultants were stained with DAPI and observed using a fluorescence microscope.

db/db mice [3] = experiment: Therapeutic model with metformin co-administration: damage to blood-retinal barrier; type: in vivo; details: metformin 350 mg/kg/day alone
Method: In addition, 50 mg/mL of fluorescein-dextran (2×10^6 molecular weight) which was prepared by dissolving in sterilized PBS (1 mL) was injected into the left ventricle. After 10 minutes, the eyeballs were enucleated, and the left eyeball was placed in an eyecup. The separated retina was placed on a slide, and then mounted using aqueous mounting medium. After this was sufficiently dried, a fluorescence microscope was used to observe the same. The results were confirmed at 12 weeks, 18 weeks, and 24 weeks of inducing diabetes, respectively.

db/db mice [4] = experiment: Therapeutic model with metformin co-administration: formation of acellular capillaries; type: in vivo; details: metformin 350 mg/kg/day alone
Method: Specifically, eyeballs were enucleated from mice in the same manner as Experimental Example 6-2, and retinas were enucleated from the eyeballs and washed with running water. Thereafter, they were placed in 3% trypsin and cultured at 37° C. for one hour. The digested retinas were transferred to PBS, and the internal membrane (membrane of organelle present in cells) was removed. The vascular frame was separated from the retinal background using a glass rod, placed on a slide, and dried. The dried vascular frame was then stained with PAS and hematoxylin, and variations in cell walls and nuclei were confirmed.

[5] = test system: human retinal pigment epithelial cell line (ARPE-19); details: Molecular Vision 2011; 17: 3512-3522; cited from earlier work
MNU-induced C57BL/6 mice = experiment: MNU-induced macular degeneration model, extracts versus paeoniflorin: thickness of outer nuclear layers; type: in vivo; details: for Thickness of outer nuclear layer (AU): orally
Method: 6-week-old male C57BL/6 mice were used after purification thereof for one week. In order to induce damage and denaturation of photoreceptor cells, among morphological changes of retinal tissues which appeared in macular degeneration, 1% (0.05% acetic acid) N-methyl-N-nitrosourea (MNU, Sigma, USA) was intraperitoneally injected to the 7-week-old male C57BL/6 mice at a concentration of 60 mg/kg. The same amount of 0.05% acetic acid was intraperitoneally administered to the normal group. As the samples, CMO4 (100 mg/kg), which is the extract of cinnamon twig and moutan root bark (1:8), and CPA4 (100 mg/kg), which is the extract of cinnamon twig and peony root (1:8), paeoniflorin −2.7 (2.7 mg/kg), and paeoniflorin −12.3 (12.3 mg/kg) were suspended and prepared in 0.5% CMC and administered orally once before the MNU administration day. After administration of MNU, these resultants were orally administered once a day for seven days, respectively. In the normal and MNU-induced groups, the same amount of 0.5% CMC was orally administered.
Change in a thickness of outer nuclear layers caused by damage to photoreceptor cells in retinal nerve tissues was confirmed.
Specifically, experimental groups in which the samples were treated in the same manner as Experimental Example 8-1 were autopsied after the administration, and eyeballs were enucleated. Thereafter, the enucleated eyeballs were fixed in 10% neutralized formalin for one day, and embedded with paraffin to prepare slide sections. The slide sections were stained with H&E and observed under an optical microscope.

- IC50 (μg/mL), inhibition of production of advanced glycation end-products [1]: 82.50 ± 1.10 µg/mL
SMILES: N=C(N)NN [AG, aminoguanidine]

- IC50 (μg/mL), cross-link fragmentation effect of AGE-BSA [2]: 17,060 ± 2.35 μg/mL
SMILES: Cc1sc[n+](CC(=O)c2ccccc2)c1C.[Cl-] [ALT-711]

SMILES: CN(C)C(=N)N=C(N)N [metformin]
- amount of occludin (western blot) (claudin-5 and occludin): no significant increase
- claudin-5 loss (staining) (claudin-5 and occludin): snapped in various regions of blood vessels
- outflow of fluorescent substances (db/db mice [3]; at 18 weeks): significantly reduced
- outflow of fluorescent substances (db/db mice [3]; at 24 weeks): not prevented
- formation of acellular capillaries (db/db mice [4]): could not prevent the proliferation

SMILES: C[C@@]12C[C@@]3(O)O[C@@H](O1)[C@]1(COC(=O)c4ccccc4)[C@H]3C[C@@]12O[C@@H]1O[C@H](CO)[C@@H](O)[C@H](O)[C@H]1O [paeoniflorin]
- apoptosis caused by H2O2 [5]: inhibitory effect on apoptosis
- Thickness of outer nuclear layer (AU) (MNU-induced C57BL/6 mice; Table 4: CMO4 100 mg/kg, paeoniflorin 2.7 mg/kg, NOR 1.99, MNU 1.23, listed as PF-2.7): 1.23±0.21 AU
- Thickness of outer nuclear layer (AU) (MNU-induced C57BL/6 mice; Table 5: CPA4 100 mg/kg, paeoniflorin 12.4 mg/kg, NOR 1.99, MNU 0.92, listed as PF-12.4): 1.11±0.19 AU
- Thickness of outer nuclear layer (%) (MNU-induced C57BL/6 mice; Table 5: CPA4 100 mg/kg, paeoniflorin 12.4 mg/kg, NOR = 100, MNU = 0.57, listed as PF-12.4): 17.5% and 17.46 ± 17.39%
